The subject of data set [1] is HFL-1 cells. Description: Radioprotection of cultured normal cells, colony count after ionizing radiation. It is filed as cell-based, human. Particulars: 2.5 to 20 micromolar for 24 hrs before 10 Gy or 15 Gy ionizing radiation, colonies vs DMSO control. As for the experimental part:
HFL-1 cells, which are normal diploid lung fibroblasts, were plated into 24 well dishes at a cell density of 3000 cells per 10 mm^2 in DMEM completed with 10% fetal bovine serum and antibiotics. The test compounds listed in Table 28 were added to the cells 24 hours later in select concentrations from 2.5 to 20 micromolar, inclusive, using DMSO as a solvent. Control cells were treated with DMSO alone. The cells were exposed to the test compound or DMSO for 24 hrs. The cells were then irradiated with either 10 Gy (gray) or 15 Gy of ionizing radiation (IR) using a J.L. Shepherd Mark I, Model 30-1 Irradiator equipped with ^137cesium as a source.
After irradiation, the medium on the test and control cells was removed and replaced with fresh growth medium without the test compounds or DMSO. The irradiated cells were incubated for 96 hours and duplicate wells were trypsinized and replated onto 100 mm^2 tissue culture dishes. The replated cells were grown under normal conditions with one change of fresh medium for 3 weeks. The number of colonies from each 100 mm^2 culture dish, which represents the number of surviving cells, was determined by staining the dishes as described below.
To visualize and count the colonies derived from the clonal outgrowth of individual radioprotected cells, the medium was removed and the plates were washed one time with room temperature phosphate buffered saline. The cells were stained with a 1:10 diluted Modified Giemsa staining solution (Sigma) for 20 minutes. The stain was removed, and the plates were washed with tap water. The plates were air dried, the number of colonies from each plate were counted and the average from duplicate plates was determined.
A “+” indicates radioprotective activity of between 2- and 4.5-fold at the concentrations tested. Fold protection was determined by dividing the average number of colonies from the test plates by the average number of colonies on the control plates.

The subject of data set [2] is C57 black mice. The data set can be described thus: Protection of mice from radiation toxicity by pre-treatment. The class given is in vivo. As for the experimental part:
C57 black mice age 10-12 weeks (Taconic) were divided into two treatment groups of 10 mice each. One group, designated the “200×2” group, received intraperitoneal injections of 200 micrograms (E)-4-carboxystyryl-4-chlorobenzylsulfone dissolved in DMSO (a 10 mg/Kg dose, based on 20 g mice) 18 and 6 hours before irradiation with 8 Gy gamma radiation. The other group, designated “500×2,” received intraperitoneal injections of 500 micrograms (E)-4-carboxystyryl-4-chlorobenzylsulfone dissolved in DMSO (a 25 mg/Kg dose, based on 20 g mice) 18 and 6 hours before irradiation with 8 Gy gamma radiation. A control group of 16 animals received 8 Gy gamma radiation alone.

Data set [3] deals with rodent species. Particulars: in vivo; cited from earlier work.

The source of these data is patent publication US20110028504A1, “Formulation of radioprotective alpha beta unsaturated aryl sulfones” (ONCONOVA THERAPEUTICS, INC., priority 2005, published 2011).

Consider `O=S(=O)(/C=C/c1ccc(F)cc1)Cc1ccc(Cl)cc1` [Compound 1, (E)-4-Fluorostyryl-4-chlorobenzylsulfone], for which, in data set [1], the “Activity (radioprotective activity, fold protection)” value was “+ (A “+” indicates radioprotective activity of between 2- and 4.5-fold at the concentrations tested)”.

With `O=S(=O)(/C=C\c1ccc(F)cc1)Cc1ccc(Cl)cc1` [Compound 7, (Z)-4-Fluorostyryl-4-chlorobenzylsulfone], the “Activity (radioprotective activity, fold protection)” value in data set [1] is “+ (A “+” indicates radioprotective activity of between 2- and 4.5-fold at the concentrations tested)”.

On to `O=S(=O)(/C=C/c1ccoc1)Cc1ccc(Cl)cc1Cl` [Compound 8, (E)-3-Furanethenyl-2,4-dichlorobenzylsulfone], for which the “Activity (radioprotective activity, fold protection)” value in data set [1] was “+ (A “+” indicates radioprotective activity of between 2- and 4.5-fold at the concentrations tested)”.

Take `O=C(O)c1ccc(/C=C/S(=O)(=O)Cc2ccc(Cl)cc2)cc1` [Compound 13, (E)-4-Carboxystyryl-4-chlorobenzylsulfone]: the “Activity (radioprotective activity, fold protection)” value in data set [1] was “+ (A “+” indicates radioprotective activity of between 2- and 4.5-fold at the concentrations tested)”. For the same compound, the “maximum mortality rate by day 40” value in data set [2] (“200×2” group: 10 mg/Kg intraperitoneal 18 and 6 hours before 8 Gy gamma radiation) was “approximately 60%”; in data set [2] (“500×2” group: 25 mg/Kg intraperitoneal 18 and 6 hours before 8 Gy gamma radiation), “about 50%”. Moreover, the “mice dead at day 20” value is “about 50%” in data set [2] (“200×2” group: 10 mg/Kg intraperitoneal 18 and 6 hours before 8 Gy gamma radiation (control 80%)); “about 30%” in data set [2] (“500×2” group: 25 mg/Kg intraperitoneal 18 and 6 hours before 8 Gy gamma radiation (control 80%)).

On to “(E)-2,4,6-Trimethoxystyryl-4-methoxybenzylsulfone [Compound 2]”, for which the “Activity (radioprotective activity, fold protection)” value in data set [1] is “+ (A “+” indicates radioprotective activity of between 2- and 4.5-fold at the concentrations tested)”.

As for “(E)-4-Fluorostyryl-4-chlorophenylsulfone [Compound 10]”, the “Activity (radioprotective activity, fold protection)” value in data set [1] is “+ (A “+” indicates radioprotective activity of between 2- and 4.5-fold at the concentrations tested)”.

For “(E)-4-Fluorostyryl-4-cyanobenzylsulfone [Compound 6]”, in data set [1], the “Activity (radioprotective activity, fold protection)” value is “+ (A “+” indicates radioprotective activity of between 2- and 4.5-fold at the concentrations tested)”.

Consider “(E)-4-Fluorostyryl-4-trifluoromethylbenzylsulfone [Compound 5]”, for which the “Activity (radioprotective activity, fold protection)” value in data set [1] is “+ (A “+” indicates radioprotective activity of between 2- and 4.5-fold at the concentrations tested)”.

“(Z)-Styryl-(E)-2-methoxy-4-ethoxystyrylsulfone [Compound 11]”: the “Activity (radioprotective activity, fold protection)” value in data set [1] is “+ (A “+” indicates radioprotective activity of between 2- and 4.5-fold at the concentrations tested)”.

Regarding Hydroxypropyl-B-Cyclodextrin [HPCD], in data set [3], the toxicity result is on record as “non-toxic”.
